Test results published in patent US6846670B2, “Genetically engineered herpes virus for the treatment of cardiovascular disease” (priority 2000, dated 2005).

Columns and labels:
[1] = tested on: human umbilical vein endothelial cells (HUVECs); experiment: MTT assay of HUVEC viability following viral exposure; assay type: cell-based
Procedure: To determine the appropriate dose for vascular gene transfer, human umbilical vein endothelial cells (HUVECs) were contacted with graded concentrations of HSV-1 for 120 min and viability was assessed using a standard 72 hr MTT assay, as described below.
Human umbilical vein endothelial cells (HUVECs; BioWhittaker/Clonetics) were suspended in complete medium EBM-2 (BioWhittaker #CC3 156) and singlequots of EGM-2 (#CC4176) and grown to 100% confluence in P75 flasks in a 37° C. incubator with humidified 5% CO2 For the passage of cells, all reagent pack contents (HBSS, Trypsin/EDTA, TNS; BioWhittaker CC-5034) were thawed in a 37° C. water bath and exhausted media was removed and discarded. HUVECs were washed with enough HBSS to cover them, trypsin/EDTA was added, and flasks were gently agitated under an inverted microscope. […]
A modified colorimetric assay based on the selective ability of living cells to reduce the yellow salt MTT (3-[4,5-dimethylthiozol-2-yl]-2,5 diphenyl tetrazolium bromide; Sigma Chemical Co.) to formazan was used to quantitate HUVEC viability following viral exposure. […] The formazan crystals were then dissolved in 0.1 ml DMSO (Sigma) and the absorbance measured at 515 nm using a microplate spectrophotometer (SpectraMax 340 004) interfaced with a personal computer (Apple Macintosh). This process was repeated after 72 hours and relative cell survival was calculated. […]

[2] = tested on: umbilical artery smooth muscle cells (UASMCs); experiment: MTT assay of UASMC viability following viral exposure and Acyclovir rescue; assay type: cell-based, human; conditions: UASMCs infected with R849 MOI=25, even with 10 μg/ml Acyclovir
Text: A modified colorimetric assay based on the selective ability of living cells to reduce the yellow salt MTT (3-[4,5-dimethylthiozol-2-yl]-2,5 diphenyl tetrazolium bromide; Sigma Chemical Co.) to formazan was used to quantitate HUVEC and UASMC viability following viral exposure and rescue with Acyclovir (Abbott Laboratories).

[3] = tested on: established HSV-1 infection; experiment: Eradication of established R849 infection with Acyclovir in rabbit vein patch; assay type: in vivo
Text: (§1) Its mechanism of action is believed to include penetration intracellularly, conversion initially to the monophosphate by viral thymidine kinases, then to the diphosphate by cellular guanylate kinase and, finally, to the triphosphate by various other cellular enzymes. Fully active Acyclovir triphosphate competes with the natural substrate, deoxyguanosine triphosphate, for a position in the DNA chain of the herpes virus. Once incorporated, it terminates DNA synthesis via (1) competitive inhibition of viral DNA polymerase, (2) incorporation into, and termination of, the growing viral DNA chain, and (3) inactivation of the viral DNA polymerase. Uninfected cells show only minimal uptake and phosphorylation of Acyclovir. The HSV strains used in this example retain tk activity and are thus highly susceptible to neutralization by Acyclovir. To test whether an established HSV-1 infection could be eradicated after completion of the desired therapeutic effect (of the recombinant HSV) in vivo, a rabbit model was used. […] Baseline serum Acyclovir, electrolyte, blood urea nitrogen, and creatinine levels were measured before initiation of Acyclovir treatment, on days 2, 5, and 10 after initiation of treatment, and at sacrifice. […]

[4] = Serum Acyclovir level and serum chemistry during Acyclovir therapy; assay type: in vivo, rabbit
Text: as §1

Structure (SMILES): Nc1nc2c(ncn2COCCO)c(=O)[nH]1 [Acyclovir, 12-amino-1,9-dihydro-9-[(2-hydroxy-ethoxy)methyl]-6H-purin-6-one]
- relative 72 hr cell survival with Acyclovir ([1]; HUVECs infected with R849 MOI=25, Acyclovir 0.25 μg/ml): 45±5%
- relative 72 hr cell survival with Acyclovir ([1]; HUVECs infected with R849 MOI=25, Acyclovir 0.5 μg/ml): 85±9%
- rescue of infected cells with Acyclovir [2]: could not be rescued
- cells with β-galactosidase activity after Acyclovir treatment ([3]; R849 4×10^8 pfu/ml vein patch, Acyclovir 75 mg/kg iv five days from week 1 plus oral, harvest at four weeks): < 1%
- patency of treated vein patches after eradication of R849 infection ([3]; four weeks): remained widely patent
- serum levels of Acyclovir ([4]; during Acyclovir therapy, rabbits): 9000 ± 4000 ng/mL
- systemic toxicity by serum electrolytes, blood urea nitrogen and creatinine ([4]; throughout the study, rabbits with R849-infected patches on Acyclovir): no significant systemic toxicity
